Source: the NIST ThermoML archive (doi:10.1016/j.jct.2012.11.020)

Assay: wn = mass fraction of the nth substance listed
Details: 298.15 K, 100 kPa, Liquid, Alternating current cell with electrodes

C1CC[NH2+]C1.O=[N+]([O-])[O-] [pyrrolidinium nitrate] + CC1COC(=O)O1
Details	electrical conductivity [S/m]
w1 = 0.1266	0.874
w1 = 0.1348	0.927
w1 = 0.1441	0.989
w1 = 0.1543	1.06
w1 = 0.1646	1.12
w1 = 0.1788	1.24
w1 = 0.1948	1.32
w1 = 0.2149	1.45
w1 = 0.2396	1.62
w1 = 0.2529	1.7
w1 = 0.2692	1.94
w1 = 0.2862	2.05
w1 = 0.3073	2.2
w1 = 0.3274	2.32
w1 = 0.3479	2.46
w1 = 0.3768	2.63
w1 = 0.3915	2.71
w1 = 0.4212	2.86
w1 = 0.4476	3.05
w1 = 0.4916	3.21
w1 = 0.5453	3.46
w1 = 0.5834	3.62
w1 = 0.6211	3.74
w1 = 0.6897	3.92
w1 = 0.7407	4.12
w1 = 0.8065	4.28
w1 = 0.8913	4.47
w1 = 1	4.22
